# Assay results published in article PMC5789847, “Bismuth antimicrobial drugs serve as broad-spectrum metallo-β-lactamase inhibitors” (Nature Communications, 2018).
# Legend:
# IMP-BL21 (IMP-4^+) = assay: microbe, parasite or virus in culture; format: cell-based, E. coli
# Procedure: (§1) MIC values were determined by standard broth micro-dilution method (Clinical and Laboratory Standards Institute (CLSI) M100-S20, 2010)[64]. Briefly, bacterial cells were cultured in LB broth overnight at 37 °C at 250 rpm and the OD was measured at 600 nm (OD600). The bacterial density was adjusted to about 1 × 10^6 CFU mL^−1 and checked by CFU counting on agar plates afterwards. Tested antibiotics or Bi(III) compounds were added triplicately into individual wells of flat-bottomed 96-well plates and performed 2-fold serial dilution, followed by addition of prepared bacterial inocula. The plate was then incubated at 37 °C for overnight. […] The MIC was determined as the lowest concentration of a drug that could inhibit the growth of microorganism by both visual reading and OD reading at 600 nm using a microtiter plate reader.
# (§2) Resulting growth (or lack of growth) was examined after overnight culturing and the lowest concentration that inhibits 99.9% of the original culture was taken as MBC.
# (§3) Other procedures were kept strictly the same. […] Synergism was defined when FICI ≤ 0.5, indifference was defined when FICI > 0.5 and < 4, and antagonism was defined when FICI≥4[65]. […] All of the determinations were performed at least in triplicate on different days.
# NDM-HK (NDM-1^+) = assay: microbe, parasite or virus in culture; format: cell-based, E. coli; conditions: Escherichia coli
# Procedure: as §1, §2, §3
# VIM-BL21 (VIM-2^+) = assay: microbe, parasite or virus in culture; format: cell-based, E. coli
# Procedure: as §1, §2, §3
# [1] = tested on: NDM-K. pneumonia (NDM-1^+); assay: Microdilution MIC/MBC and checkerboard assay; format: cell-based, Klebsiella pneumonia; conditions: NDM-K. pneumonia (NDM-KP)
# Procedure: as §1, §2, §3
# [2] = tested on: NDM-C. freundii (NDM-1^+); assay: Microdilution MIC/MBC and checkerboard assay; format: cell-based, Citrobacter freundii; conditions: NDM-C. freundii (NDM-CF)
# Procedure: as §1, §2, §3
# NDM-BL21 = assay: Microdilution MIC assay; format: cell-based, E. coli; conditions: Escherichia coli, CBS0, read-out: MIC of MER, CBS at 0
# Text: (§4) Other procedures were kept strictly the same.
# NDM-Rosetta = assay: Microdilution MIC assay; format: cell-based, E. coli; conditions: Escherichia coli, CBS0, read-out: MIC of MER, CBS at 0
# Text: as §4
# NDM-Rosetta OX = assay: Microdilution MIC assay; format: cell-based, E. coli; conditions: Escherichia coli, CBS0, read-out: MIC of MER, CBS at 0, NDM-Rosetta OX (NDM-1 overexpressing); CBS 0 µg mL-1
# Procedure: For the test of NDM-Rosetta OX, the growth condition briefly goes as follow. Overnight culture of NDM-Rosetta was 1000-fold diluted into fresh LB medium and regrew to OD ~0.6. The overexpression of NDM-1 was induced by addition of 1 mM isopropyl β-D-1-thiogalactopyranoside (IPTG) for 4 h at 37 °C. The following susceptibility test was performed as described in the Microdilution MIC and MBC assay section in the methodology by using the resulting bacterial pellets with the supplementation of 200 µM IPTG.
# as §4
# C208A-Rosetta = assay: Microdilution MIC assay; format: cell-based, E. coli; conditions: Escherichia coli, CBS0, read-out: MIC of MER, CBS at 0
# Procedure: For the test of C208A-Rosetta, the growth condition briefly goes as follow. Overnight culture of C208A-Rosetta was diluted into fresh LB medium (1000-fold) and regrew to OD ~0.6. The overexpression of NDM-1-C208A was induced by addition of 200 μM isopropyl β-D-1-thiogalactopyranoside (IPTG) for 18 h at 25 °C. The following susceptibility test was performed as described in the Microdilution MIC and MBC assay section in the methodology by using the resulting bacterial pellets with the supplementation of 200 μM IPTG.
# as §4
# NDM-HK [3] = assay: Resistance study: MPC and mutation frequency; format: cell-based, E. coli; conditions: no CBS
# NDM-HK [4] = assay: In vitro cell infection assay (MDCK cells); format: cell-based, E. coli; conditions: MOI 200, MER at 2-fold MIC alone, overnight
# Procedure: MDCK cell was cultured in minimum essential Media (MEM) supplemented with fetal bovine serum (FBS, 10%) and grown at 37 °C in 5% CO2-humidified atmosphere for 3 days. About 1.0 × 10^5 MDCK cells were seeded per well in 24-well plates and incubated as described above for 48 h to ensure confluency. Logarithmic cultures of NDM-HK were washed with PBS for three times and re-suspended in MEM/10% FBS resulting in the initial bacterial density of about 2.0 × 10^7 CFU mL^−1. Then, 500 μL of bacterial suspension were added to each well and substituted for the previous MDCK culture medium. The plates were centrifuged at 800 × g for 10 min and then incubated for another 6 h, executing the bacterial infection at multiplicity of infection (MOI) of 200. We then used two infection models for examination, viz, the cell-associated bacterial infection and cell-invaded bacterial infection. The cell-associated bacteria are herein defined as bacteria that attach to, penetrate, or transcytose in MDCK cells, while the cell-invaded bacteria are defined as bacteria that penetrate or transcytose MDCK cells. For the cell-invaded infection, the infected cells were incubated in culture medium supplemented with ciprofloxacin (100 µg mL^−1) for 1 h to remove extracellular bacteria. Then, the treated cells were washed vigorously with PBS for six times and replenished with culture medium. For the cell-associated infection, the infected cells were only washed vigorously with PBS for six times to remove unbound bacteria. The infected MDCK cells were then exposed to either MER or CBS, or their combination for overnight under identical cell culture condition. Cells in the absence of drugs served as a control. The bacterial loads were examined by lysing MDCK cells with 1% Triton X-100 in PBS and serially diluting the resulting lysates to enumerate bacterial colonies by agar plating. The assay was performed in triplicate, repeated three times, and results were expressed as average ± SD.
# NDM-HK [5] = assay: Murine peritonitis infection, mucin-assisted model; format: in vivo, BALB/c mice; conditions: 2% mucin, i.p. twice daily
# Text: All experiments were approved by, and performed in accordance with the guidelines approved by Committee on the Use of Live Animals in Teaching and Research (CULATR), the University of Hong Kong. A total of 6–8-week-old, female BALB/c mice (18–22 g) were purchased from Charles River Laboratories, Inc. and were used in all mouse studies. The animals were randomized to cages for each experiment.
# In mucin-assisted model, for infection with NDM-1-positive bacteria, an overnight culture of NDM-HK was performed 1:250 dilution in 100 mL LB broth and re-grew to about OD600 0.3 in a 500-mL flask after 2.5 h shaking at 37 °C, 250 rpm. Bacterial pellets were collected and washed by PBS buffer three times for further use. Mice were infected intraperitoneally (i.p.) with a dose of 1 × 10^5 CFU of bacteria in PBS supplemented with 2% mucin. […] Twice-daily treatment via i.p. injection was continued throughout the whole experimental course. For the infection with NDM-1-negative bacteria, all the operations of infection were similar to those used for NDM-HK, except that NDM-HK PCV was used as infection-causing bacteria. […] Twice-daily treatment via i.p. injection was continued throughout the whole experimental course. Body weights and mice survival were monitored till endpoint of the experiment.
# NDM-HK PCV = assay: Murine peritonitis infection with NDM-1-negative bacteria; format: in vivo, BALB/c mice; conditions: identical dose of MER, lethal dose of NDM-HK PCV
# [6] = Escherichia coli, read-out: MBC of MER alone
# [7] = Escherichia coli, read-out: MIC of MER alone
smiles,measurement,setting,value
"C[C@@H](O)[C@H]1C(=O)N2C(C(=O)O)=C(S[C@@H]3CN[C@H](C(=O)N(C)C)C3)[C@H](C)[C@H]12 [MER, meropenem]",MBC,IMP-BL21 (IMP-4^+); [6],32 µg/mL
same,MIC,IMP-BL21 (IMP-4^+); [7],32 µg/mL
same,MBC of MER alone,IMP-BL21 (IMP-4^+); IMP-BL21,32/32 µg mL^-1
same,MIC of MER alone,IMP-BL21 (IMP-4^+); IMP-BL21,32/32 µg mL^-1
same,MIC,"NDM-HK (NDM-1^+); CBS0, read-out: MIC of MER alone",16 µg/mL
same,MBC,NDM-HK (NDM-1^+); read-out: MBC of MER alone,16 µg/mL
same,MBC,VIM-BL21 (VIM-2^+); [6],32 µg/mL
same,MIC,VIM-BL21 (VIM-2^+); [7],32 µg/mL
same,MBC of MER alone,VIM-BL21 (VIM-2^+); VIM-BL21,32/32 µg mL^-1
same,MIC of MER alone,VIM-BL21 (VIM-2^+); VIM-BL21,32/32 µg mL^-1
same,MBC,"[1]; Klebsiella pneumoniae, read-out: MBC of MER alone",16 µg/mL
same,MIC,"[1]; Klebsiella pneumoniae, read-out: MIC of MER alone",16 µg/mL
same,MBC of MER alone,[1],16/16 µg mL^-1
same,MIC of MER alone,[1],16/16 µg mL^-1
same,MBC,"[2]; Citrobacter freundii, read-out: MBC of MER alone",8 µg/mL
same,MIC,"[2]; Citrobacter freundii, read-out: MIC of MER alone",8 µg/mL
same,MBC of MER alone,[2],8/8 µg mL^-1
same,MIC of MER alone,[2],8/8 µg mL^-1
same,MIC,NDM-BL21,16 µg/mL
same,MIC,NDM-Rosetta,32 µg/mL
same,MIC,NDM-Rosetta OX,256 µg/mL
same,MIC,C208A-Rosetta,0.12 µg/mL
same,MPC of MER alone,NDM-HK [3],32 folds of MIC
same,"viable bacterial loads, cell-associated infection",NDM-HK [4],~10^6 CFU
same,"mice rescued at endpoint, MER monotherapy",NDM-HK [5],two of the eight mice
same,outcome of MER monotherapy in mice infected with NDM-HK PCV,NDM-HK PCV,cured all the mice
